Reference: patent US4622327A, “2H-azeto[2,1-a]-isoquinoline derivatives and pharmaceutical compositions containing them” (Richter Gedeon Vegyeszeti Gyar R.T., priority 1983, dated 1986)

Key:
pentylenetetrazole spasm = assay: Metrazole spasm; type: in vivo; settings: mice, 30 mg/kg oral, pentylenetetrazole 125 mg/kg s.c., observation one hour
Method: (§1) For the pharmacological tests CFLP (LATI) mice of both sexes, weighing 18 to 22 g each and male Han. Wistar (LATI) rats weighing 160 to 180 g each were used. The test materials were administered orally, in 30 mg/kg doses, in the form of a suspension containing 5% of Tween 80, one hour before the tests.
2. Metrazole spasm (mice)
After pretreatment the animals were administered 125 mg/kg of pentylenetetrazole subcutaneously.
Observation time: one hour (Everett L. M. and Richards R. K.: J. Pharmacol. Exp. Ther. 81, 402/1944/).

[1] = system: acetic acid-induced writhing syndrome; assay: Analgesic activity (acetic acid writhing syndrome); type: in vivo, mice; settings: for Analgesic activity: 30 mg/kg oral, change in writhing frequency vs control
Method: as §1
4. Analgesic activity (mice)
One hour after pretreatment, mice were administered 0.4 ml of a 0.6% acetic acid solution intraperitoneally, as a pain stimulus. The frequency of writhing syndrome is registered for 30 minutes. The changes observed as a result of treatment with the test compounds is related to the mean value of the frequency of writhing syndrome in the control group, and the difference is expressed in percentage (Koster R. et al.: Exp. Ther. 72:74/1941/).

[2] = system: hyperthermia induced with Brewer's yeast; assay: Antipyretic activity (Brewer's yeast hyperthermia); type: in vivo, rats; settings: for ED50: Rattus norvegicus, po, read-out: Antipyretic activity, ED50
Method: as §1
5. Antipyretic activity (rats)
Hyperthermia is induced in rats with Brewer's yeast suspension (0.5% of Brewer's yeast, 1% of arabic gum in a volume of 0.3 ml, s.c.). The animals are treated with the test materials 4 hours later, and the tracheal temperature of the animals is registered with an ELAB thermometer (typ. TE-3) for 4 hours. The antipyretic activity is expressed in percentage of the animals which have an at least one centrigrade lower temperature than the average of the temperature of the control group treated with the solvent (Nimegeers C. J. E. et al.: Arzneimittel Forsch. 25:15/9/1975/).

tonic, extensoric spasm = assay: Maximum electroshock; type: in vivo; settings: mice, 30 mg/kg oral, one hour before test
Method: as §1
1. Maximum electroshock (mice)
The shock was applied through a corneal electrode (20 mA, 0.2 msec, HSE Schockgerat typ. 207).

COc1cc2c(cc1OC)C1C(CCl)CN1CC2.I (stereo not shown) [Compound A, 1-(chloromethyl)-7,8-dimethoxy-1,4,5,9b-tetrahydro-2H-azeto[2,1-a]isoquinoline hydroiodide]
Antispasm activity, metrazole, b (tonic extensoric spasm) (pentylenetetrazole spasm): 20.0
decrease of the frequency of acetic acid-induced writhing syndrome ([1]; mice, 30 mg/kg): about 30%
Analgesic activity ([1]; mice): 30.0%
ED50 [2]: 75 mg/kg
antipyretic potency relative to Na-salicylate ([2]; rats): one and a half-times more potent

O=C(O)c1ccccc1O [Na--salycilate, reference compound]
Antispasm activity, metrazole, b (tonic extensoric spasm) (pentylenetetrazole spasm): 20.0
analgesic effect in words ([1]; 30 mg/kg): ineffective
ED50 ([1]; Mus musculus, po, read-out: Analgesic activity, ED50): 113 mg/kg
ED50 [2]: 110 mg/kg

CCOc1cc2c(cc1OCC)C1C(CCl)CN1CC2.Cl (stereo not shown) [Compound B, 1-(chloromethyl)-7,8-diethoxy-1,4,5,9b-tetrahydro-2H-azeto[2,1-a]isoquinoline hydrochloride]
Antispasm activity, max. electroshock (tonic, extensoric spasm): 20.0
Antispasm activity, metrazole, b (tonic extensoric spasm) (pentylenetetrazole spasm): 24.0
Analgesic activity ([1]; mice): 20.0%
Antipyretic activity ([2]; rats, 30 mg/kg oral, % of animals with at least one centigrade lower temperature than control): 30.0%
